Assay results published in patent US5264423A, “Inhibitors for replication of retroviruses and for the expression of oncogene products” (The United States of America as represented by the …, priority 1992, dated 1993).
“Also recorded” adds a separate entry of the source.

Legend:
[1] = system: HIV (HTLV-IIIB) in ATH8 cells; assay: HIV cytopathic effect inhibition (viable ATH8 cells, trypan blue); conditions: for anti-HIV activity (cytopathic effect): in words; for protection of target cells, single agent: each agent alone (2 micromoles dideoxyadenosine; 5 micromoles S-dC14), 1000 virions per cell, day 13
Experimental: FIGS. 1A-1D and Table 1, The target cells (2×10^5 ATH8 cells) in each tube were pretreated with the stated concentration of each oligomer for 16 hours and then incubated with Polybrene for 45 minutes. After centrifugation, each set of pelleted cells was exposed to HIV (500 virions per cell, which is a much higher dose than the minimal cytopathic dose) and incubated for one hour. Complete media (2 ml RPMI1640) supplemented with L-glutamine (4 mti), 2-mercaptoethanol ([…]), penicillin (50 unit/ml), and streptomycin (50 micrograms/ml), and containing 15% fetal calf serum and IL-2 (15% of conventional IL-2 from Advanced Biotechnologies, Inc., Silver Spring, MD, plus 20 unit/ml of recombinant IL-2 from Amgen Biochemicals, Thousand Oaks, CA) with the various concentrations of oligomers added. The number of viable cells were counted in a hemocytometer using the trypan blue exclusion method for day 7 following exposure to the virus. Filled columns represent non-virus exposed cells, and dotted columns represent virus exposed cells.
The HIV cytopathic effect inhibition with oligodeoxynucleotides was performed with 18 hours of pretreatment of 2×10^5 target cells (ATH8 cells) with oligos prior to exposure to HTLV-IIIB. After this pretreatment, target cells were treated with Polybrene (2 micrograms/ml) for one hour. The target cells were then, respectively, exposed to HTLV-IIIB virus (generally 500 virions per cell in this series of experiments) for one hour. The 2×10^5 cells were then diluted to 2 ml with complete media containing IL-2 and various concentrations of oligos.
The number of viable cells was counted in a hemocytometer using the trypan blue exclusion method on day 7 following exposure to the virus. Each set of data were obtained from simultaneously performed experiments so as to make a precise comparison among agents tested.
The target cells (2×10^5 ATH8 cells per tube) were preincubated with the stated concentrations of S-dC14 for 24 hours and pretreated with 2 micrograms/ml of Polybrene for 45 minutes. After centrifugation, pelleted cells were exposed to the HIV (1000 virions per cell) for one hour. The cells were incubated in 2 ml of complete media containing IL-2, and the viable cells were counted on day 13.
On day 13 after the exposure to the virus, viable cells were counted by the trypan blue dye exclusion method.

ATH8 cells = assay: Cytotoxicity of ODNs (Table 2); assay type: cell-based
Text: Since phosphorothioate ODNs which are not anti-sense sequences appear to be very effective antiviral agents, an attempt was made to clarify the nature of the base composition effect.

[2] = Stability in in vitro test media followed by 31P NMR; assay type: in vitro ADME
Text: The phosphorothioate oligodeoxynucleotides of the present invention have suitable chemical characteristics, namely, the ability to hybridize with complementary DNA/MRNA under physiological conditions, and better solubility properties relative to methylphosphonates. Moreover, the thioesters are as soluble in biological media as the parent compounds.
Thus, it is believed that it is mainly the relative resistance of the phosphorothioate analogs to nucleases that preserves them relative to n-ODNs, and allows them to reach and remain at their target site. This was supported in relation to the media used in the in vitro test system by following the 31P NMR spectra of the n-ODN-1 and S-ODN-1 compounds as a function of time.

Stability in human serum = assay type: in vitro ADME; conditions: 31P NMR
endonuclease S1 = assay: Nuclease susceptibility, S1 nuclease; assay type: in vitro ADME
Text: (§1) Several oligodeoxynucleotides were studied with regard to DNase sensitivity, cf. Table 5. These include cytidine homopolymers, ODN-4 (an anti-message 28-mer complementary to the 3' region of the art/trs region of HIV BH10 clone), and myc-1 (a 15-mer complementary to the initiation codon region of the C-myc oncogene). The DNases employed were predominantly endonuclease S1, the exo- and endonuclease P1, and snake venom (SV) phosphodiesterase. The concentration of S1 nuclease was ten-fold higher (100 micromoles/ml) for reactions of oligo-dc, since both the normal and PS analog were degraded extremely slowly be this enzyme. S1 and P1 nuclease digestion proceeded at 2-45 times more slowly for the S-ODNs than for the normal oligomers, with the […] being somewhat more readily digested than the 28-mer.

exo- and endonuclease P1 = assay: Nuclease susceptibility, P1 nuclease; assay type: in vitro ADME
Text: as §1

[3] = system: snake venom (SV) phosphodiesterase; assay: Nuclease susceptibility, snake venom phosphodiesterase; assay type: in vitro ADME
Text: as §1

[4] = system: de novo HIV DNA synthesis in ATH8 cells; assay: Southern blot of de novo HIV DNA synthesis; assay type: cell-based; conditions: positive control, 50 micromoles (lanes E and J)
Text: Target cells (1×10^7 ATH8 cells) were pretreated with or without S-dC28 at various concentrations for sixteen hours, then treated with Polynrene, exposed to HIV (500 virus particles per cell), resuspended, and cultured in the presence or absence of S-dC28. On days 4 and 7 following the exposure to the virus, high molecular weight DNA was extracted, digested with Asp718 (a Kpn I isoschizomer from Boehringer-tiannheim, Indianapolis, IN), and subjected to Southern blot analysis hybridized with a labelled insert of molecular clone of the env region of HTLV-III (BH10) containing a 1.3 Kb Bgl II fragment.
FIGS. 6A-6D show the inhibitor effect of the phosphorothioate oligodeoxycytidine analog (S-dC28) on de novo HIV DNA synthesis in target cells. On days 4 and 7 following the exposure to the virus, a substantial amount of viral DNA was detected by Southern blot analysis without antiviral agents.
On day 4, shown in lanes A-E, and day 7, shown in lanes F-J, following exposure to the virus, high molecular weight DNA was extracted. Lanes A and F contain DNA from ATH8 cells that were exposed to the virus and not protected by S-dC28. Lanes B and G, C and H, D and I, contain DNA from ATH8 cells pretreated and cultured with 1 micromole, 5 micromoles, and 7 micromoles S-dC28, respectively. Lanes E and J contain DNA from ATH8 cells treated with 50 micromoles 2', 3'-dideoxyadenonsine, and lane K contains DNA from ATH8 cells that was not exposed to the virus.

HL60 cells = assay: HL60 cell growth (cell count); assay type: cell-based; conditions: in words
gamma-interferon = assay: Induction of gamma-interferon in culture supernatant; assay type: cell-based; conditions: supernatant of the culture
Text: Another mechanism which should be considered is induction of interferon production such as that proposed for phosphorothioate analogs of poly-r(I-C). […] Also, since there are no data to support the concept that phosphorothioate internucleotide linkages have a thiol character, and can thus form disulfides, the mechanism of action would likely be different from that proposed for antiviral polynucleotides having thiolated bases such as 5-mercapto-cytosine or -uracil.

d-(Ts Cs Gs Ts Cs Gs Cs Ts Gs Ts Cs Ts Cs C) [S-ODN-1]
ANTI-VIRAL EFFECT (%) ([1]; 1 uM): 0%
ANTI-VIRAL EFFECT (%) ([1]; 5 uM): 43%
ANTI-VIRAL EFFECT (%) ([1]; 10 uM): 72%
ANTI-VIRAL EFFECT (%) ([1]; 25 uM): 95%
anti-HIV activity (cytopathic effect) [1]: substantial activity against HIV; also recorded: protected against HIV
CYTOTOXICITY (%) (ATH8 cells; 1 uM): 0%
CYTOTOXICITY (%) (ATH8 cells; 5 uM): 0%
CYTOTOXICITY (%) (ATH8 cells; 10 uM): 0%
CYTOTOXICITY (%) (ATH8 cells; 25 uM): 20%
phosphorothioate bonds after 10 days ([2]; 10 days): still intact after 10 days
decomposition based on the total signal intensity ([2]; after 10 days): less than 5%
degradation / half-life in media used in the in vitro test system ([2]; up to a week): no significant degradation even after a week

dAACGTTGAGGGGCAT [O-myc-1, reference compound]
half-life in 50% human serum (Stability in human serum): two to three days
Nuclease susceptibility, t1/2 (endonuclease S1): 36 s
Nuclease susceptibility, t1/2 (exo- and endonuclease P1): 69 s
Nuclease susceptibility, t1/2 [3]: 28 s

recombinant gamma-interferon: recombinant alpha- or gamma-interferon
inhibition of the cytopathic effect ([1]; 1000 units added directly to the cultures): did not inhibit the cytopathic effect

d-(Gs Gs As Gs As Cs As Gs Cs Gs As Cs Gs A) [S-ODN-2]
ANTI-VIRAL EFFECT (%) ([1]; 1 uM): 11%
ANTI-VIRAL EFFECT (%) ([1]; 5 uM): 56%
ANTI-VIRAL EFFECT (%) ([1]; 10 uM): 100%
ANTI-VIRAL EFFECT (%) ([1]; 25 uM): 78%
anti-HIV activity (cytopathic effect) [1]: protected against HIV
CYTOTOXICITY (%) (ATH8 cells; 1 uM): 0%
CYTOTOXICITY (%) (ATH8 cells; 5 uM): 0%
CYTOTOXICITY (%) (ATH8 cells; 10 uM): 0%
CYTOTOXICITY (%) (ATH8 cells; 25 uM): 6%

dTCGTCGCTGTCTCCGCTTCTTCCTGCCA [O-ODN-4, reference compound]
Nuclease susceptibility, t1/2 (exo- and endonuclease P1): 72 s
Nuclease susceptibility, t1/2 [3]: 20 s

Nc1ncnc2c1ncn2[C@H]1CC[C@@H](CO)O1 [2', 3'-dideoxyadenosine, reference compound]
inhibition of de novo synthesis of viral DNA [4]: significantly inhibited the de novo synthesis of viral DNA
inhibition of de novo synthesis of viral DNA ([4]; listed as 2', 3'-dideoxyadenonsine): detected only in lanes A and F
protection of target cells, single agent [1]: only marginal protective effects

d-(Cs As Ts As Gs Gs As Gs As Ts Gs Cs Cs T) [S-ODN-3]
ANTI-VIRAL EFFECT (%) ([1]; 1 uM): 0%
ANTI-VIRAL EFFECT (%) ([1]; 5 uM): 6%
ANTI-VIRAL EFFECT (%) ([1]; 10 uM): 44%
ANTI-VIRAL EFFECT (%) ([1]; 25 uM): 94%
CYTOTOXICITY (%) (ATH8 cells; 1 uM): 0%
CYTOTOXICITY (%) (ATH8 cells; 5 uM): 0%
CYTOTOXICITY (%) (ATH8 cells; 10 uM): 0%
CYTOTOXICITY (%) (ATH8 cells; 25 uM): 13%

5'-CTG AAG TGG CAT GAG (CTGAAGTGGCATGAG; all phosphorothioate, sugars by position and methylation of C not given here) [non-sense sequence, reference compound]
effect on HL60 cell proliferation (HL60 cells): none of the controls used, namely, the non-sense sequence, has shown similar activity
effect on HL60 cell proliferation (HL60 cells; listed as nonsense S-ODN): not all nonsense S-ODN concentrations affected cell proliferation

(dC)n n = 14 [S-dC14]
induction of gamma-interferon (gamma-interferon): No induction of gamma-interferon
ANTI-VIRAL EFFECT (%) ([1]; 1 uM): 25%
ANTI-VIRAL EFFECT (%) ([1]; 5 uM): 100%
ANTI-VIRAL EFFECT (%) ([1]; 10 uM): 100%
ANTI-VIRAL EFFECT (%) ([1]; 25 uM): 100%
protection against the virus ([1]; 5 micromoles (65 micromole equivalents), FIGS. 6B-6D): only a moderate effect
protection of target cells, single agent [1]: only marginal protective effects
anti-HIV activity (cytopathic effect) [1]: most potent antiviral compound among those tested in this series of experiments
anti-HIV activity (cytopathic effect) ([1]; listed as 14-mer oligo-dc): substantial protection against HIV cytopathic effect
CYTOTOXICITY (%) (ATH8 cells; 1 uM): 0%
CYTOTOXICITY (%) (ATH8 cells; 5 uM): 0%
CYTOTOXICITY (%) (ATH8 cells; 10 uM): 0%
CYTOTOXICITY (%) (ATH8 cells; 25 uM): 0%

Nc1ccn([C@H]2CC[C@@H](CO)O2)c(=O)n1 [2', 3'-dideoxycytidine, reference compound]
protection against the virus / antiviral activity ([1]; 0.5 micromoles): complete antiviral activity
